# According to patent US20210137961A1, “Compositions and Methods for Treating Dry Eye Diseases” (priority 2017, published 2021):
# Key:
# Moraxella catarrhalis = assay: MIC against Moraxella catarrhalis; type: cell-based; conditions: N 21
# pathogenic bacteria = type: cell-based
# [1] = test system: Viridans group streptococci; assay: MIC against Viridans group streptococci; type: cell-based; conditions: N 51
# Mycoplasma pneumoniae = assay: MIC against Mycoplasma pneumoniae; type: cell-based
# [2] = test system: Haemophilus parainfluenzae; assay: MIC against Haemophilus parainfluenzae; type: cell-based; conditions: N 11
# CA-MRSA = assay: MIC against CA-MRSA; type: cell-based, Staphylococcus aureus; conditions: N 30
# [3] = test system: Streptococci (Groups C, F, G); assay: MIC against Streptococci (Groups C, F, G); type: cell-based; conditions: N 185
# CXCL8 = assay: LPS-induced CXCL8 (IL-8) production in PMA-differentiated U937 cells (ELISA); type: cell-based, human
# Method: EXAMPLE. […] Cells. The human monocytic cell line U937 was obtained from the American Type Culture Collection (ATCC, Rockville, Md.). PBMCs from COPD patients were obtained from Brompton hospital and separated by AccuSPIN (Sigma-Aldrich). […] U937 cells were differentiated into adherent macrophage-like morphology by exposure to PMA (50 ng/ml) for 48 h in complete growth medium. Cell viability was assessed microscopically by trypan blue staining. Cell toxicity was determined by MTT assay as needed. This study was approved by the ethics committee of the Royal Brompton Hospitals, and all subjects gave written informed consent. Cytokine ELISA. TNFα and IL-8 concentrations in the supernatant of cell cultures were determined by sandwich ELISA according to the manufacturer's instructions (R&D Systems Europe, Abingdon, UK). Statistical analysis. The results were expressed as the mean±SEM. Comparisons of data in two groups were performed using the Student's t test or the Wilcoxon signed rank test. Multiple comparisons were made by one-way ANOVA with post hoc test (Dunnett's) as appropriate. The difference was considered significant at p<0.05. […] Anti-inflammatory effects of solithromycin in U937 cells.
# Peptostreptococcus spp. = assay: MIC against Peptostreptococcus spp.; type: cell-based; conditions: N 10
# phospholipase = assay: Phospholipase inhibition in other cell lines; type: cell-based
# [4] = test system: phagocytized L. pneumophila; type: cell-based
# Mycoplasma hominis = assay: MIC against Mycoplasma hominis; type: cell-based; conditions: N 13
# Streptococcus pyogenes = assay: MIC against Streptococcus pyogenes; type: cell-based
# Haemophilus influenzae = assay: MIC against Haemophilus influenzae; type: cell-based
# [5] = Corneal permeability, Franz-Cell Diffusion Apparatus; type: in vitro ADME, bovine (calf)
# Method: EXAMPLE. Corneal Permeability. Corneal permeability is determined using conventional protocols. Briefly, corneal permeability is determined on freshly excised bovine (calf) cornea using a Franz-Cell Diffusion Apparatus generally with n=3/group. Freshly excised calf cornea are stored until use in hydrating solution containing glutathione and buffer. The Apparatus includes a donor chamber on the top where a predetermined volume of the formulation is pipetted and a jacketed receptor cell with a sampling side arm. The joint between the donor and receptor cell is upward-convex, mimicking the shape of the cornea. The corneal membrane is placed on the ball joint with the cornea facing the donor chamber. The Apparatus is clamped to secure the cells with the donor and receptor chambers aligned. […] The volume is recorded. […] Test samples are added in rapid succession by depositing 200 μL of the formulation into each donor chamber using a calibrated pipet and the times recorded. […] Flux can be calculated by the formula: J=Q/(A·t), where Q is the quantity (micrograms) of compound traversing the membrane in time t (minutes), and A is the area of exposed membrane in cm^2. […] After completion of the diffusion, corneas are weighed to determine the quantity of bound test compound in the cornea, and the corneal thicknesses of each cornea is measured at the point of diffusion (the center) using Vernier calipers. […]
# Ureaplasma urealyticum = assay: MIC against Ureaplasma urealyticum; type: cell-based; conditions: N 10
# Mycobacterium avium = assay: MIC against Mycobacterium avium; type: cell-based; conditions: N 30
# [6] = Streptococcus pyogenes (a), N 407
compound,measurement,setting,value
"CC[C@H]1OC(=O)[C@@](C)(F)C(=O)[C@H](C)[C@@H](O[C@@H]2O[C@H](C)C[C@H](N(C)C)[C@H]2O)[C@](C)(OC)C[C@@H](C)C(=O)[C@H](C)[C@H]2N(CCCCn3cc(-c4cccc(N)c4)nn3)C(=O)O[C@]12C [Solithromycin, solithromycin]",MIC50,Moraxella catarrhalis,120 ng/mL
same,MIC90,Moraxella catarrhalis,120 ng/mL
same,MIC Range,Moraxella catarrhalis,≤8 to 500 ng/mL
same,activity against Azi resistant strains,pathogenic bacteria,active against all Azi resistant strains tested
same,potency relative to Azi,pathogenic bacteria,8-16 fold
same,activity relative to conventional macrolides,pathogenic bacteria; greater activity,10 fold
same,intracellular activity relative to Azi,pathogenic bacteria; intracellular,10 fold
same,MIC50,[1],≤8 ng/mL
same,MIC90,[1],60 ng/mL
same,MIC Range,[1],≤0.008-0.12 ^ μg/mL
same,MIC90,Mycoplasma pneumoniae; Mycoplasma pneumoniae (38 strains),0.125 ng/mL
same,MIC50,"Mycoplasma pneumoniae; Mycoplasma pneumoniae, N 38",0.032 ng/mL
same,MIC90,"Mycoplasma pneumoniae; Mycoplasma pneumoniae, N 38",0.125 ng/mL
same,MIC Range,"Mycoplasma pneumoniae; Mycoplasma pneumoniae, N 38",≤6.3e-05 to 500 ng/mL
same,MIC50,[2],2000 ng/mL
same,MIC90,[2],2000 ng/mL
same,MIC Range,[2],1000 to 2000 ng/mL
same,MIC50,CA-MRSA,120 ng/mL
same,MIC90,CA-MRSA,120 ng/mL
same,MIC Range,CA-MRSA,60 to 120 ng/mL
same,MIC50,[3],≤30 ng/mL
same,MIC90,[3],≤30 ng/mL
same,MIC Range,[3],≤0.03-0.25^ μg/mL
same,IC50,"CXCL8; LPS, PMA-differentiated U937 cells, read-out: IC50 on CXCL8 release",78.2 ± 9.5 µM
same,inhibition of CXCL8 (IL-8) production (in words),"CXCL8; solithromycin and telithromycin at 100 μM, clarithromycin at 333 μM",significantly inhibited
same,MIC50,Peptostreptococcus spp.,60 ng/mL
same,MIC90,Peptostreptococcus spp.,250 ng/mL
same,MIC Range,Peptostreptococcus spp.,≤0.03-0.25^ μg/mL
same,reversibility of phospholipase inhibition,phospholipase; after dosing is stopped,rapidly reversible
same,IC50,"phospholipase; other cell lines, read-out: IC50 for phospholipase inhibition",100 µM
same,potency relative to azithromycin,[4],100 fold
same,MIC50,Mycoplasma hominis,4 ng/mL
same,MIC90,Mycoplasma hominis,8 ng/mL
same,MIC Range,Mycoplasma hominis,2 to 8 ng/mL
same,MIC90,Streptococcus pyogenes; Streptococcus Pyogenes (100 strains),30 ng/mL
same,MIC50,Streptococcus pyogenes; [6],≤30 ng/mL
same,MIC90,Streptococcus pyogenes; [6],≤30 ng/mL
same,MIC Range,Streptococcus pyogenes; [6],≤0.03-0.5 ^ μg/mL
same,MIC50,"Streptococcus pyogenes; Streptococcus pyogenes, N 407",≤30 ng/mL
same,MIC90,"Streptococcus pyogenes; Streptococcus pyogenes, N 407",≤30 ng/mL
same,MIC Range,"Streptococcus pyogenes; Streptococcus pyogenes, N 407",≤0.03-0.5 ^ μg/mL
same,MIC90,Haemophilus influenzae; Haemophilus influenzae (100 strains),2000 ng/mL
same,MIC50,"Haemophilus influenzae; Haemophilus influenzae, N 100",1000 ng/mL
same,MIC90,"Haemophilus influenzae; Haemophilus influenzae, N 100",2000 ng/mL
same,MIC Range,"Haemophilus influenzae; Haemophilus influenzae, N 100",120 to 4000 ng/mL
same,time after administration at which compound is observed in receptor fluid,"[5]; bovine cornea, Franz cell",≤ 1 h
same,concentration in receptor fluid,[5]; within 1 h of administration,> 1000 ng/mL
same,MIC50,Ureaplasma urealyticum,8 ng/mL
same,MIC90,Ureaplasma urealyticum,31 ng/mL
same,MIC Range,Ureaplasma urealyticum,4 to 63 ng/mL
same,MIC50,Mycobacterium avium,1000 ng/mL
same,MIC90,Mycobacterium avium,1000 ng/mL
same,MIC Range,Mycobacterium avium,1000 ng/mL
